Assays:
[1] = target: Alpha-1B adrenergic receptor (Mesocricetus auratus) (UniProt P18841); assay: Binding affinity against Alpha-1B adrenergic receptor from hamster clones.
[2] = target: Alpha-1B adrenergic receptor (Mesocricetus auratus) (UniProt P18841); assay: The compound was tested for binding affinity against Alpha-1B adrenergic receptor, from hamster clones.

Chain of Alpha-1B adrenergic receptor (Mesocricetus auratus) (P18841 whole entry, looked up): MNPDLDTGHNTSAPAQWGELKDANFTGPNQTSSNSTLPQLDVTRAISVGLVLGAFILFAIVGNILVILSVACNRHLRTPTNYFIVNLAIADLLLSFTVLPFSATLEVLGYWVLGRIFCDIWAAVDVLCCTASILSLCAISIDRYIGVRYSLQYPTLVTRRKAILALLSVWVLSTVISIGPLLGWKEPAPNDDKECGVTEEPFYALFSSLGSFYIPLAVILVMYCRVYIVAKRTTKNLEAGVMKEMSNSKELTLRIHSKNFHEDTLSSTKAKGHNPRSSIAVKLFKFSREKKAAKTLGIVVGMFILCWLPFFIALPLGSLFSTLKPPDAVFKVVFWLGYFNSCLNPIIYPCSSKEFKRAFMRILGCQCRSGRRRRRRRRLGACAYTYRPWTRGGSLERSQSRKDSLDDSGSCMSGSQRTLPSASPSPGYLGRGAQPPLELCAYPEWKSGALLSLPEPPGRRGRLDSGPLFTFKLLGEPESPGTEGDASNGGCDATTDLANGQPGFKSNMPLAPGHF

Work on COc1cc2nc(N(C)CCCNC(=O)C3CCCO3)nc(N)c2cc1OC (stereo not drawn) [N-{3-[(4-amino-6,7-dimethoxyquinazolin-2-yl)(methyl)amino]propyl}tetrahydrofuran-2-carboxamide] yielded a Ki [1] of 12 nM.

Compound COc1cc2c(cc1OC)CN(c1cc(N)c3cc(OC)c(OC)cc3n1)CC2 has a Ki [1] of 0.11 nM.

O=C(NC1CCN(CCc2c[nH]c3ccccc23)CC1)c1ccccc1 [N-{1-[2-(1H-Indol-3-yl)-ethyl]-piperidin-4-yl}-benzamide(indoramin)] showed a Ki [2] of 25 nM.

Source: BindingDB's records for doi:10.1021/jm00018a001 (Smithkline Beecham Pharmaceuticals, 1995)
